The text below walks through data of BindingDB's records for doi:10.1046/j.1471-4159.2000.0750413.x (Oregon State University, 2000).

This assay deals with Cannabinoid receptor 1 (Taricha granulosa, UniProt Q9PUI7).
Chain of Cannabinoid receptor 1 (Q9PUI7 whole entry): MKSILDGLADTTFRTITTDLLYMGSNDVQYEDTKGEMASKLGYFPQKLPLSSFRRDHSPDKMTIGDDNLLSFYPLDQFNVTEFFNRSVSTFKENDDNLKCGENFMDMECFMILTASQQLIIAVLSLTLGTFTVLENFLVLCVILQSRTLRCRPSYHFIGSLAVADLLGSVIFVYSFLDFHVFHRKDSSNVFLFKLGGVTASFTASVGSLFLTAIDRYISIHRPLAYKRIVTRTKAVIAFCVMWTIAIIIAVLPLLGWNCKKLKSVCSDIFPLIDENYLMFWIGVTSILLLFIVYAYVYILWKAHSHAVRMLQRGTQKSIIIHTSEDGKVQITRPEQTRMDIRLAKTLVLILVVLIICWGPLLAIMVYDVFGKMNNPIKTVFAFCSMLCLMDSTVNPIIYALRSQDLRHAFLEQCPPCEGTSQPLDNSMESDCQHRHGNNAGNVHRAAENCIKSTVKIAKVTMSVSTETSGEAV

In general, Ki refers to a measure of affinity in units of concentration, obtained from inhibition or displacement. A high value points to lower affinity. Molecule `CCCCC/C=C\C/C=C\C/C=C\C/C=C\CCCCCC(=O)NCCO` had a Ki of 2400 nM. In the case of `CCCCCCC(C)(C)c1ccc([C@H]2C[C@@H](O)CC[C@@H]2CCCO)c(O)c1` [CP-56667 [(+)-AC],XV], the affinity corresponds to a Ki of 3.8 nM. Molecule `CC(=O)Oc1cc(OC(C)CCCc2ccccc2)cc2c1C1CC(O)CCC1C(C)N2` (centres undefined) [NSC_107822] gave a Ki of 13 nM.

In turn, `Cc1c(C(=O)c2cccc3ccccc23)c2cccc3c2n1[C@H](CN1CCOCC1)CO3` [WIN55212-2] showed an inhibition constant (Ki) of 25.7 nM.
